Test results reported in paper PMC9635984 (Bioorganic & medicinal chemistry letters, 2022).

Tested on: MDA-MB-231 breast cancer cells
Assay: In vitro antitumor activity against breast cancer cell line MDA-MB-231
Type: cell-based
Details: Homo sapiens, MDA-MB-231, read-out: IC50 (μM) MDA-MB-231

Structure (SMILES): Cn1c(CCCC(=O)O)nc2cc(N(CCCl)CCCl)ccc21 [Bendamustiune, bendamustine]
- IC50: 13.3 µM
